Source: patent publication US7553838B2, “Mitotic kinesin inhibitors” (Merck & Co. Inc., priority 2004, dated 2009)

Biological target: T1, human poly-histidine tagged KSP motor domain (KSP(367H)) (Homo sapiens, UniProt P52732)
T1 construct: were used to amplify the motor domain and the neck linker region; made in house; host or cells: E. coli BL21 (DE3), pRSETa
T1 sequence (P52732 18-359 limits assumed): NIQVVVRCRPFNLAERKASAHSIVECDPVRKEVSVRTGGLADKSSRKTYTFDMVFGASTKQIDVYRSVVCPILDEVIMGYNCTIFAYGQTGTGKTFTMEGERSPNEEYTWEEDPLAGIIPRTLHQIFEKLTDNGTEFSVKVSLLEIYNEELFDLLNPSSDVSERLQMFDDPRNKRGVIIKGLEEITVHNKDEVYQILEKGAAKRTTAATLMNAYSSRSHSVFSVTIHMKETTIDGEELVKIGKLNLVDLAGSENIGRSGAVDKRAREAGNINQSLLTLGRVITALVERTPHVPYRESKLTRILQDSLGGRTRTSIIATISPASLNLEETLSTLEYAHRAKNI
Test: Kinesin ATPase In Vitro Assay
Format: biochemical
Conditions: microtubules, 1 mM ATP, 23° C.; free phosphate by quinaldine red/ammonium molybdate
Excerpt: I. Kinesin ATPase In Vitro Assay
Cloning and expression of human poly-histidine tagged KSP motor domain (KSP(367H))
Plasmids for the expression of the human KSP motor domain construct were cloned by PCR using a pBluescript full length human KSP construct (Blangy et al., Cell, vol. 83, pp 1159-1169, 1995) as a template. The N-terminal primer 5′-[…] (SEQ.ID.NO.: 1) and the C-terminal primer 5′-[…] […] (SEQ.ID.NO.: 2) were used to amplify the motor domain and the neck linker region. The PCR products were digested with AseI and XhoI, ligated into the NdeI/XhoI digestion product of pRSETa (Invitrogen) and transformed into E. coli BL21 (DE3).
Cells were grown at 37° C. to an OD600 of 0.5. […]
The kinesin motor domain is incubated with microtubules, 1 mM ATP (1:1 MgCl2: Na-ATP), and compound at 23° C. in buffer containing 80 mM K-HEPES (pH 7.0), 1 mM EGTA, 1 mM DTT, 1 mM MgCl2, and 50 mM KCl. […] Free phosphate from the ATP hydrolysis reaction is measured via a quinaldine red/ammonium molybdate assay by adding 150 μl of quench C buffer containing a 2:1 ratio of quench A:quench B. Quench A contains 0.1 mg/ml quinaldine red and 0.14% polyvinyl alcohol; quench B contains 12.3 mM ammonium molybdate tetrahydrate in 1.15 M sulfuric acid. The reaction is incubated for 10 minutes at 23° C., and the absorbance of the phospho-molybdate complex is measured at 540 nm.

IC50: ≤ 50 µM
Structure (SMILES): CC(C(=O)N1N=C(c2cc(F)ccc2F)CC1(CO)c1ccccc1)N1CCN(C)CC1 (racemic) [Compound 3-4, {3-(2,5-difluorophenyl)-1-[2-(4-methylpiperazin-1-yl)propanoyl]-5-phenyl-4,5-dihydro-1H-pyrazol-5-yl}methanol]
